# Tested on: HIV in the HTLV-1 transformed cell line MT-4
# Assay: organism not typed
# Assay type: cell-based
# Conditions: MT4, 96 h, MT-4 cells; luciferase/cell titer glo readout after 96 hours; 10 point dose response
row,SMILES,IC50 [nM]
1,"Cc1c(-c2c(C)c3c(c(C)c2[C@H](OC(C)(C)C)C(=O)O)CN(C(=O)c2ccccc2C(C)(C)C)C3)cc(F)c2c1CCCO2 (atropisomer, axis not shown; (M)) [Example 155, (S)-2-(tert-butoxy)-2-(2-(2-(tert-butyl)benzoyl)-6-((M)-8-fluoro-5-methylchroman-6-yl)-4,7-dimethylisoindolin-5-yl)acetic acid]",48
2,"COc1cc(C(=O)N2Cc3c(C)c(-c4cc(F)c5c(c4C)CCCO5)c([C@H](OC(C)(C)C)C(=O)O)c(C)c3C2)ccc1C (atropisomer, axis not shown; (M)) [Example 156, (S)-2-(tert-butoxy)-2-(6-((M)-8-fluoro-5-methylchroman-6-yl)-2-(3-methoxy-4-methylbenzoyl)-4,7-dimethylisoindolin-5-yl)acetic acid]",3
3,"Cc1ccc(C)c(C(=O)N2Cc3c(C)c(-c4cc(F)c5c(c4C)CCCO5)c([C@H](OC(C)(C)C)C(=O)O)c(C)c3C2)c1 (atropisomer, axis not shown; (M)) [Example 157, (S)-2-(tert-butoxy)-2-(2-(2,5-dimethylbenzoyl)-6-((M)-8-fluoro-5-methylchroman-6-yl)-4,7-dimethylisoindolin-5-yl)acetic acid]",3
4,"Cc1c(-c2c(C)c3c(c(C)c2[C@H](OC(C)(C)C)C(=O)O)CN(C(=O)c2ccccc2)C3)cc(F)c2c1CCCO2 (atropisomer, axis not shown; (M)) [Example 158, (S)-2-(2-benzoyl-6-((M)-8-fluoro-5-methylchroman-6-yl)-4,7-dimethylisoindolin-5-yl)-2-(tert-butoxy)acetic acid]",2
5,"COc1cccc(C(=O)N2Cc3c(C)c(-c4cc(F)c5c(c4C)CCCO5)c([C@H](OC(C)(C)C)C(=O)O)c(C)c3C2)c1 (atropisomer, axis not shown; (M)) [Example 159, (S)-2-(tert-butoxy)-2-(6-((M)-8-fluoro-5-methylchroman-6-yl)-2-(3-methoxybenzoyl)-4,7-dimethylisoindolin-5-yl)acetic acid]",2
6,"COc1ccc(C)c(C(=O)N2Cc3c(C)c(-c4cc(F)c5c(c4C)CCCO5)c([C@H](OC(C)(C)C)C(=O)O)c(C)c3C2)c1 (atropisomer, axis not shown; (M)) [Example 160, (S)-2-(tert-butoxy)-2-(6-((M)-8-fluoro-5-methylchroman-6-yl)-2-(5-methoxy-2-methylbenzoyl)-4,7-dimethylisoindolin-5-yl)acetic acid]",4
7,"Cc1c(-c2c(C)c3c(c(C)c2[C@H](OC(C)(C)C)C(=O)O)CN(C(=O)c2cccc4c2CCC4)C3)cc(F)c2c1CCCO2 (atropisomer, axis not shown; (M)) [Example 161, (S)-2-(tert-butoxy)-2-(2-(2,3-dihydro-1H-indene-4-carbonyl)-6-((M)-8-fluoro-5-methylchroman-6-yl)-4,7-dimethylisoindolin-5-yl)acetic acid]",3
8,"Cc1c(-c2c(C)c3c(c(C)c2[C@H](OC(C)(C)C)C(=O)O)CN(C(=O)c2cccc4c2OC(F)(F)O4)C3)cc(F)c2c1CCCO2 (atropisomer, axis not shown; (M)) [Example 162, (S)-2-(tert-butoxy)-2-((M)-2-(2,2-difluorobenzo[d][1,3]dioxole-4-carbonyl)-6-(8-fluoro-5-methylchroman-6-yl)-4,7-dimethylisoindolin-5-yl)acetic acid]",2
9,"Cc1c(-c2c(C)c3c(c(C)c2[C@H](OC(C)(C)C)C(=O)O)CN(C(=O)c2cccc4ccccc24)C3)cc(F)c2c1CCCO2 (atropisomer, axis not shown; (M)) [Example 168, (S)-2-((M)-2-(1-naphthoyl)-6-(8-fluoro-5-methylchroman-6-yl)-4,7-dimethylisoindolin-5-yl)-2-(tert-butoxy)acetic acid]",11
10,"Cc1c(-c2c(C)c3c(c(C)c2[C@H](OC(C)(C)C)C(=O)O)CN(C(=O)c2cccc4ccoc24)C3)cc(F)c2c1CCCO2 (atropisomer, axis not shown; (M)) [Example 169, (S)-2-((M)-2-(benzofuran-7-carbonyl)-6-(8-fluoro-5-methylchroman-6-yl)-4,7-dimethylisoindolin-5-yl)-2-(tert-butoxy)acetic acid]",2
11,"Cc1c(-c2c(C)c3c(c(C)c2[C@H](OC(C)(C)C)C(=O)O)CN(C(=O)c2cc(F)cc(F)c2)C3)cc(F)c2c1CCCO2 (atropisomer, axis not shown; (M)) [Example 170, (S)-2-(tert-butoxy)-2-((M)-2-(3,5-difluorobenzoyl)-6-(8-fluoro-5-methylchroman-6-yl)-4,7-dimethylisoindolin-5-yl)acetic acid]",2
12,"Cc1c(-c2c(C)c3c(c(C)c2[C@H](OC(C)(C)C)C(=O)O)CN(C(=O)c2ccc(F)c(Cl)c2)C3)cc(F)c2c1CCCO2 (atropisomer, axis not shown; (M)) [Example 171, (S)-2-(tert-butoxy)-2-((M)-2-(3-chloro-4-fluorobenzoyl)-6-(8-fluoro-5-methylchroman-6-yl)-4,7-dimethylisoindolin-5-yl)acetic acid]",2
13,"Cc1c(Cl)cccc1C(=O)N1Cc2c(C)c(-c3cc(F)c4c(c3C)CCCO4)c([C@H](OC(C)(C)C)C(=O)O)c(C)c2C1 (atropisomer, axis not shown; (M)) [Example 172, (S)-2-(tert-butoxy)-2-((M)-2-(3-chloro-2-methylbenzoyl)-6-(8-fluoro-5-methylchroman-6-yl)-4,7-dimethylisoindolin-5-yl)acetic acid]",7
14,"Cc1c(-c2c(C)c3c(c(C)c2[C@H](OC(C)(C)C)C(=O)O)CN(C(=O)c2cc(F)c(F)c(F)c2)C3)cc(F)c2c1CCCO2 (atropisomer, axis not shown; (M)) [Example 173, (S)-2-(tert-butoxy)-2-((M)-6-(8-fluoro-5-methylchroman-6-yl)-4,7-dimethyl-2-(3,4,5-trifluorobenzoyl)isoindolin-5-yl)acetic acid]",3
15,"Cc1c(-c2c(C)c3c(c(C)c2[C@H](OC(C)(C)C)C(=O)O)CN(C(=O)c2ccc(F)cc2)C3)cc(F)c2c1CCCO2 (atropisomer, axis not shown; (M)) [Example 174, (S)-2-(tert-butoxy)-2-((M)-6-(8-fluoro-5-methylchroman-6-yl)-2-(4-fluorobenzoyl)-4,7-dimethylisoindolin-5-yl)acetic acid]",4
16,"Cc1c(-c2c(C)c3c(c(C)c2[C@H](OC(C)(C)C)C(=O)O)CN(C(=O)c2cc(F)c(Cl)c(F)c2)C3)cc(F)c2c1CCCO2 (atropisomer, axis not shown; (M)) [Example 175, (S)-2-(tert-butoxy)-2-((M)-2-(4-chloro-3,5-difluorobenzoyl)-6-(8-fluoro-5-methylchroman-6-yl)-4,7-dimethylisoindolin-5-yl)acetic acid]",5
17,"Cc1c(-c2c(C)c3c(c(C)c2[C@H](OC(C)(C)C)C(=O)O)CN(C(=O)c2cccc(F)c2F)C3)cc(F)c2c1CCCO2 (atropisomer, axis not shown; (M)) [Example 176, (S)-2-(tert-butoxy)-2-((M)-2-(2,3-difluorobenzoyl)-6-(8-fluoro-5-methylchroman-6-yl)-4,7-dimethylisoindolin-5-yl)acetic acid]",4

# Reference: patent US10112899B2 (ViiV HEALTHCARE UK LIMITED, priority 2014, dated 2018)
